# Data published in US20240124456A1, “AZA-ERGOLINE DERIVATIVE AND PREPARATION METHOD THEREFOR AND APPLICATION THEREOF” (SHANGHAITECH UNIVERSITY, priority 2021, published 2024).
# pKi: −log10 of the molar value. Read-outs that look alike come from different tables or passages of the source.
# What was measured:
# [1] = target: dopamine D2 receptors (Homo sapiens (Human), UniProt P14416); assay: Radioligand competition binding, affinity for dopamine D2 receptors ([3H]-Methylspiperone); conditions: [3H]-Methylspiperone (0.3-0.5 nM), HEK-293T membranes; for pKi: I-1 to 19 n=3, I-20 to 27 single determination; for Affinity pKi ± SEM: n=3
# [2] = Pharmacokinetic properties in C57 male mice, single dose (plasma, LC-MS/MS); assay type: in vivo; conditions: for AUC(0-inf): read-out: Area under the drug-time curve AUC0-inf; for AUC(0-t): read-out: Area under the drug-time curve AUC0-t; for MRT: read-out: Mean residence time MRTPO; for half-life: read-out: Terminal elimination half-life t1/2 (converted); for bioavailability: read-out: Bioavailability F; for Cmax: read-out: Drug peak concentration Cmax; for Tmax: read-out: Time to peak tmax
# Experimental: 1. Test of the pharmacokinetic properties of compound (−)-I-10 administered to C57 male mice by single intragastric administration, intraperitoneal injection and intravenous injection
# Compound (−)-I-10 was administered in a single dose in C57 male mice, and then blood samples were collected at different time points, the concentration of the compound in mouse plasma was determined by LC-MS/MS and the relevant pharmacokinetic parameters were calculated to investigate the pharmacokinetics of the compound in the mice.
# 27 male C57 mice were provided by Suzhou Zhaoyan Experimental Animal Co., Ltd., and the experiment was carried out according to Table 4 below.
# 0.030 mL of blood was taken from each animal through the orbit each time and anticoagulated with EDTA-K2, and the collection time points were: 0, 5, 15, 30 min, 1, 2, 4, 6, 8, 24 h after administration of the test substance. Blood samples were placed on ice after collection, and the plasma was separated by centrifugation within 30 minutes (centrifugation conditions: 5000 rpm, 10 minutes, 4° C.) and stored at −80° C. until analysis.
# Data acquisition and control system software was Analyst 1.5.1 software (Applied Biosystem). The sample peak integration method of the spectrum was automatic integration; the ratio of the peak area of the sample to the peak area of the internal standard was used as an index, and regression was performed with the concentration of the sample. Regression method: linear regression with a weight factor of 1/X2. Pharmacokinetic parameters were analyzed using WinNonlin Professional v6.3 (Pharsight, USA) using non-compartmental models. Cmax was the measured maximum drug concentration in blood, the area under the drug concentration in blood-time curve AUC (0→t) was calculated by the trapezoidal method, and Tmax was the time to peak of the drug concentration in blood after administration. The experimental data were expressed by “mean=standard deviation” (Mean±[…], n≥3) or “mean” (Mean, n=2).
# [3] = mouse, plasma, intravenous injection 1 mg/kg
# [4] = mouse, plasma, ip, intraperitoneal injection 1 mg/kg
# [5] = mouse, plasma, oral administration 5 mg/kg
# Sequence of dopamine D2 receptors (P14416 whole entry): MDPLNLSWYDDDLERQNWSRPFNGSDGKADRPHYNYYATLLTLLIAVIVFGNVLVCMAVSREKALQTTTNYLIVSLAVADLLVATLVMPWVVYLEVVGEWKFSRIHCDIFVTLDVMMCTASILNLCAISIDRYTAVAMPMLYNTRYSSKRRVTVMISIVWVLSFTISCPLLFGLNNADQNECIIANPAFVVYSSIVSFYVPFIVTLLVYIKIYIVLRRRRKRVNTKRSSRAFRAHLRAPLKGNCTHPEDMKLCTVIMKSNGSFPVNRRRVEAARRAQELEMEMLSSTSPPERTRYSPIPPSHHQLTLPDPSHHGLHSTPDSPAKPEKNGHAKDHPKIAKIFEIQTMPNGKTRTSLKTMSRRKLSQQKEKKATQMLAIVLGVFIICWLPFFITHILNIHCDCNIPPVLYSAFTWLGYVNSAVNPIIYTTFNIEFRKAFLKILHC
smiles,measurement,setting,value
"O=c1ccc2ccc(OCCCCN3CCN4c5cccc6[nH]cc(c56)CC4C3)cc2[nH]1 (racemic) [Compound I-2, 7-(4(4,6,6a,7,9,10-hexahydro-8H-pyrazino[1,2-a]pyrrolo[4,3,2-de]quinolin-8-yl)butoxy)quinolin-2(1H)-one]",pKi,[1],8.04
CN(C)C(=O)N[C@H]1CC[C@H](CCN2CCN3c4cccc5[nH]cc(c45)C[C@@H]3C2)CC1 [(+)-I-10],pKi,[1],5.95
same,Affinity pKi ± SEM,[1],(5.95 ± 0.17)
"O=C1CCc2ccc(OCCCCN3CCN4c5cccc6[nH]cc(c56)CC4C3)cc2N1 (stereo not shown) [Compound I-1, 7-(4(4,6,6a,7,9,10-hexahydro-8H-pyrazino[1,2-a]pyrrolo[4,3,2-de]quinolin-8-yl)butoxy)-3,4-dihydroquinolin-2(1H)-one]",pKi,[1],7.47
same,Affinity pKi ± SEM,[1],(7.47 ± 0.16)
CN(C)C(=O)N[C@H]1CC[C@H](CCN2CCN3c4cccc5[nH]cc(c45)C[C@H]3C2)CC1 [(−)-I-10],pKi,[1],7.65
same,Affinity pKi ± SEM,[1],(7.65 ± 0.08)
same,pharmacokinetic properties (in words),[2],good pharmacokinetic properties
same,Terminal elimination rate Kel,[2]; intraperitoneal injection 1 mg/kg,0.886 h⁻¹
same,Terminal elimination rate Kel,[2]; intravenous injection 1 mg/kg,0.805 h⁻¹
same,Vd,"[2]; mouse, plasma, intravenous injection 1 mg/kg, read-out: Apparent volume of distribution Vdss",4.86 L/kg
same,AUC(0-inf),[2]; [3],215 ng·h/mL
same,AUC(0-t),[2]; [3],211 ng·h/mL
same,clearance,"[2]; mouse, plasma, intravenous injection 1 mg/kg, read-out: Clearance CL",77.6 mL/min/kg
same,MRT,[2]; [3],62.4 min
same,half-life,[2]; [3],51.7 min
same,AUC(0-inf),[2]; [4],175 ng·h/mL
same,AUC(0-t),[2]; [4],172 ng·h/mL
same,bioavailability,[2]; [4],81.4%
same,Cmax,[2]; [4],271 ng/mL
same,MRT,[2]; [4],46.2 min
same,half-life,[2]; [4],46.9 min
same,Tmax,[2]; [4],5 min
same,AUC(0-inf),[2]; [5],596 ng·h/mL
same,AUC(0-t),[2]; [5],591 ng·h/mL
same,bioavailability,[2]; [5],55.9%
same,Cmax,[2]; [5],558 ng/mL
same,MRT,[2]; [5],89.4 min
same,half-life,[2]; [5],69 min
same,Tmax,[2]; [5],5 min
same,Terminal elimination rate Kel,[2]; oral administration 5 mg/kg,0.604 h⁻¹
